# Laboratory results: ChEMBL document CHEMBL5104196, “Discovery of Novel, Potent, and Selective Small-Molecule Menin-Mixed Lineage Leukemia Interaction Inhibitors through Attempting Introduction of Hydrophilic Groups” (J Med Chem, 2022)
# Activity calls are given as the source filed them. No cut-off for these calls is given here.
# Key:
# [1] = Metabolic stability in Sprague-Dawley rat liver microsome assessed as half life measured upto 60 min by UPLC-MS/MS analysis; format: ADME; details: liver microsomes
# Homo sapiens [2] = organism: Homo sapiens; assay: Inhibition of TKL (unknown origin) at 1 uM in presence of ATP at Km concentration by Mobility shift assay relative to control
# [3] = Solubility of compound in phosphate buffer at pH 7.4 by spectrophotometric analysis; format: physicochemical
# [4] = Metabolic stability in human liver microsome assessed as compound remaining measured after 60 min by UPLC-MS/MS analysis; format: ADME; details: liver microsomes, read-out: Stability
# [5] = Metabolic stability in human liver microsome assessed as intrinsic clearance measured upto 60 min by UPLC-MS/MS analysis; format: ADME; details: microsomes, 1 h
# MV4-11 [6] = assay: Induction of cell differentiation in human MV4-11 cells assessed as increase in CD11b expression at 10 uM measured after 7 days by flow cytometric analysis; format: functional, cell-based; details: time 7.0 day
# Homo sapiens [7] = organism: Homo sapiens; assay: Inhibition of CMGC (unknown origin) at 1 uM in presence of ATP at Km concentration by Mobility shift assay relative to control
# [8] = Total clearance in Sprague-Dawley rat at 15 mg/kg, po; format: ADME, organism-based; details: in vivo
# [9] = Metabolic stability in CD-1 mouse liver microsome assessed as intrinsic clearance measured upto 60 min by UPLC-MS/MS analysis; format: ADME; details: microsomes, 1 h
# [10] = Metabolic stability in Sprague-Dawley rat liver assessed as intrinsic clearance measured upto 60 min by UPLC-MS/MS analysis; format: ADME, tissue-based; details: read-out: CLH
# MV4-11 [11] = assay: Induction of apoptosis in human MV4-11 cells incubated for 24 hrs by annexinV/PI staining based flow cytometry analysis; format: functional, cell-based; details: dose 0.1-10 µM, DDE = dose-dependent effect
# [12] = molecular target: Menin/Histone-lysine N-methyltransferase MLL (Homo sapiens, UniProt O00255); assay: Inhibition of Menin/fluorescein labeled MLL(4 to 43 residues) (unknown origin) protein protein interaction incubated for 1 hr by fluorescence polarization-based competitive binding assay
# Sequence of Menin/Histone-lysine N-methyltransferase MLL (O00255 whole entry, the tested form may be a part): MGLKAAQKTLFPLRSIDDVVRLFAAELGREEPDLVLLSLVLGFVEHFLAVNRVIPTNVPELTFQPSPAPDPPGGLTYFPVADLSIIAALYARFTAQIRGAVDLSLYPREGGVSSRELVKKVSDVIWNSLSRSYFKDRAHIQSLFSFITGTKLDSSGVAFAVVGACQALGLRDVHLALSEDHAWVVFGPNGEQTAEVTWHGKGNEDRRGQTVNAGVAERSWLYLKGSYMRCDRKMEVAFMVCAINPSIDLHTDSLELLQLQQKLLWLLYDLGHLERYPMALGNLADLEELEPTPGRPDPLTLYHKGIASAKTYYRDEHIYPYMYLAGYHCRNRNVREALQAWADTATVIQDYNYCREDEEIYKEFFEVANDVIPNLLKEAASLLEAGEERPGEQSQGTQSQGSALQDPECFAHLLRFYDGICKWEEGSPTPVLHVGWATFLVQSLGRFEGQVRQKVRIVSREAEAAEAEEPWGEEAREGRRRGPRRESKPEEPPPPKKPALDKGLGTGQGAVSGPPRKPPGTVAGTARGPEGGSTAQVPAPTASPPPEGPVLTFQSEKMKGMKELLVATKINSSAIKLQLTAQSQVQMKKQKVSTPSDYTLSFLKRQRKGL
# Sequence of Menin/Histone-lysine N-methyltransferase MLL (Q03164 1-2718 partner limits assumed): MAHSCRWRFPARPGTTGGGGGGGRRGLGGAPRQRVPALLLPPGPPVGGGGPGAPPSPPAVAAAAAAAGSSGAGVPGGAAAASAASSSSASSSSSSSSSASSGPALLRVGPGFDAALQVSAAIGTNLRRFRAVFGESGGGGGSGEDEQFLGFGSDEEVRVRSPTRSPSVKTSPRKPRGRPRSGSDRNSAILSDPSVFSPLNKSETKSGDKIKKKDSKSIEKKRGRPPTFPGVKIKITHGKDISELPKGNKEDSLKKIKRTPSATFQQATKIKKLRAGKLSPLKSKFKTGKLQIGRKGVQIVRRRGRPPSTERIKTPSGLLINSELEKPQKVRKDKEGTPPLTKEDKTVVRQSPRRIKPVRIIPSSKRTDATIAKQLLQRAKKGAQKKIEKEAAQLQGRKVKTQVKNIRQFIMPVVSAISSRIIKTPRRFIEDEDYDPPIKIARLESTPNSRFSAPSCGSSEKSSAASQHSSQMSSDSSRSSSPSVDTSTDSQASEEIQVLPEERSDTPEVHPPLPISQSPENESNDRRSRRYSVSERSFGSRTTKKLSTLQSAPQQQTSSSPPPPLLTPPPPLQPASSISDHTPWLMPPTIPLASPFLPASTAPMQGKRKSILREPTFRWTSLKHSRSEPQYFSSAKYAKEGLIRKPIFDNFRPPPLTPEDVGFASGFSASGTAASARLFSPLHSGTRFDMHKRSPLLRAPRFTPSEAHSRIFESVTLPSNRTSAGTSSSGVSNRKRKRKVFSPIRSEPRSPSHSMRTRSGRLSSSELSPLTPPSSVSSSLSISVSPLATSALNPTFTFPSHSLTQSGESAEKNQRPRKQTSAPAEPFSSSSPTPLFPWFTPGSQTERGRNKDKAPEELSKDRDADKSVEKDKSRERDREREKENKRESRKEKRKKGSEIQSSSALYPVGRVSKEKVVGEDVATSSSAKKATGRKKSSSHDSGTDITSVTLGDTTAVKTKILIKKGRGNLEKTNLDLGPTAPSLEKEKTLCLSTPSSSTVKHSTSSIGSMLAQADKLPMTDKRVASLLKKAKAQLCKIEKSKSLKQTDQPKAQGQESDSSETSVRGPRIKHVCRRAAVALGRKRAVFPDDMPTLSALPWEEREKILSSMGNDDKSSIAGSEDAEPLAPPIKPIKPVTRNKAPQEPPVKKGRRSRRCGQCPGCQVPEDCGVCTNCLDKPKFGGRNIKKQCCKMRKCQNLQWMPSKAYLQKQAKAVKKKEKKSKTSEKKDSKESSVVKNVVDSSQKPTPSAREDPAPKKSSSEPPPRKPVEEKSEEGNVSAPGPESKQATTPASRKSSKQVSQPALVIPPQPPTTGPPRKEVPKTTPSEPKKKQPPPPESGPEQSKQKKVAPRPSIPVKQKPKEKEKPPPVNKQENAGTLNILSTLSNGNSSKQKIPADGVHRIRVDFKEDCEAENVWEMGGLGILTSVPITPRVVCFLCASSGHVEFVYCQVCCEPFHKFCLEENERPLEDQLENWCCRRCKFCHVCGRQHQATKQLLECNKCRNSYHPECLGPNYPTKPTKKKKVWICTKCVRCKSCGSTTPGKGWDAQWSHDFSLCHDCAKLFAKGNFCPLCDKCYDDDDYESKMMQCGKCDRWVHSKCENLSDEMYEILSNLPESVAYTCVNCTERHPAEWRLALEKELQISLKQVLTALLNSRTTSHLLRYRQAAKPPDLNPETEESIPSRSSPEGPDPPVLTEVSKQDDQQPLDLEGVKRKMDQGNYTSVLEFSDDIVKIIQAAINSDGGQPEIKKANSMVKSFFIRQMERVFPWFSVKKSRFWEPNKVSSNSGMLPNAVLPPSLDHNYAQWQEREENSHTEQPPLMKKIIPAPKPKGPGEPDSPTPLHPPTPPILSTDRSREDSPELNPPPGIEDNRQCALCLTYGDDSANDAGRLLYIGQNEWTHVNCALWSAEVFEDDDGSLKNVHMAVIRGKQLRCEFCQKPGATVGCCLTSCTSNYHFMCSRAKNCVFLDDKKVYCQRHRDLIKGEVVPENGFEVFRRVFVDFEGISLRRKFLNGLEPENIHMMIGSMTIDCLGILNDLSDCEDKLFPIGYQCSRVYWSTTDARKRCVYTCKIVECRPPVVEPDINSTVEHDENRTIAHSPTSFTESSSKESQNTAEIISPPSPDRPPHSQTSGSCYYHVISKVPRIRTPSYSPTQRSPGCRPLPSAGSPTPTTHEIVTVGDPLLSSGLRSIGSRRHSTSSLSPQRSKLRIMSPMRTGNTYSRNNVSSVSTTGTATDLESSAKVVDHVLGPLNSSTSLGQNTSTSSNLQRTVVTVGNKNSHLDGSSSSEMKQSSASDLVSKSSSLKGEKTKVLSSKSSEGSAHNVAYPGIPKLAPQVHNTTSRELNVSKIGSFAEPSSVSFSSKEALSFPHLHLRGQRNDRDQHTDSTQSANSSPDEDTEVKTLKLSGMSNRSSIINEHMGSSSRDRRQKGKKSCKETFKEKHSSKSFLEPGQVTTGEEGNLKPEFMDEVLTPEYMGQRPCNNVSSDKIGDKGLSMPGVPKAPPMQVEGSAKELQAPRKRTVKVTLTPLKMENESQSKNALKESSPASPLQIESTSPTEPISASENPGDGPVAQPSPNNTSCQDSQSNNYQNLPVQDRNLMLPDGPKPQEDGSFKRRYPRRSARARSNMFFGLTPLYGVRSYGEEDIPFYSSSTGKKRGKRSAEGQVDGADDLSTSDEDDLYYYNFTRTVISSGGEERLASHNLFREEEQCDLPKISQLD
# Sequence of Menin/Histone-lysine N-methyltransferase MLL (Q03164 2719-3969 partner limits assumed): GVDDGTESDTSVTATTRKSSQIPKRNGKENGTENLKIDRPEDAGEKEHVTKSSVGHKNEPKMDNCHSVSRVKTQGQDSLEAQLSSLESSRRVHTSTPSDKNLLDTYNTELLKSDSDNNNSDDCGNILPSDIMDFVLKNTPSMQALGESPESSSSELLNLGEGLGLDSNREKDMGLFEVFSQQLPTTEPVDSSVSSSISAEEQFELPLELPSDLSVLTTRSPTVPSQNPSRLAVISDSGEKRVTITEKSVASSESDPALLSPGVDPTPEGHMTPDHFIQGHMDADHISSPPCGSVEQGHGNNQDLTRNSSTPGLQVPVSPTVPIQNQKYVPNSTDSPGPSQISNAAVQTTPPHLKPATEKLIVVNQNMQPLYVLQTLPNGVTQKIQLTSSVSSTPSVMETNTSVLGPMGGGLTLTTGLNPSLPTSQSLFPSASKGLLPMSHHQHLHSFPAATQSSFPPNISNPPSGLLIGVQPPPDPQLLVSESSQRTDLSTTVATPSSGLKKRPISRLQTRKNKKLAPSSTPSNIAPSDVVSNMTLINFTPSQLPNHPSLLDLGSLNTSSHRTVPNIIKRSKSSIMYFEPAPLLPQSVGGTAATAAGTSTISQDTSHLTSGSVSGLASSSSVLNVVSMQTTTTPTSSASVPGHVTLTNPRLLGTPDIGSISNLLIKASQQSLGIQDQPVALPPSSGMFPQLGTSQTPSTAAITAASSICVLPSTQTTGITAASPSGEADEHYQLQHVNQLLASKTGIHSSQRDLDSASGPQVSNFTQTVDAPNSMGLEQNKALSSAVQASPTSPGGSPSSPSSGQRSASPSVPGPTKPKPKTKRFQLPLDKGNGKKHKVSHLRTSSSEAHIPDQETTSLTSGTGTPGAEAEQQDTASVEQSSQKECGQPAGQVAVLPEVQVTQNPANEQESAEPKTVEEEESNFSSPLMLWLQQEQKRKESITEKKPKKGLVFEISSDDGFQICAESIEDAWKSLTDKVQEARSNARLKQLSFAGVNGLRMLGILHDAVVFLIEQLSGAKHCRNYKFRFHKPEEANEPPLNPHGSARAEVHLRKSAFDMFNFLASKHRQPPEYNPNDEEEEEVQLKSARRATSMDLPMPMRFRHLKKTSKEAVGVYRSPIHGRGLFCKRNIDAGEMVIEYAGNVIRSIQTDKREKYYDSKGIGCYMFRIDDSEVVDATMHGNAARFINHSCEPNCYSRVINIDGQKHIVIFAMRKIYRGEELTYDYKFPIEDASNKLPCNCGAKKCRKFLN
# [13] = Metabolic stability in human liver microsome assessed as half life measured upto 60 min by UPLC-MS/MS analysis; format: ADME; details: liver microsomes
# [14] = MRT in Sprague-Dawley rat at 5 mg/kg, iv; format: ADME, organism-based; details: in vivo
# [15] = Metabolic stability in Sprague-Dawley rat liver microsome assessed as intrinsic clearance measured upto 60 min by UPLC-MS/MS analysis; format: ADME; details: microsomes, 1 h
# [16] = Metabolic stability in CD-1 mouse liver assessed as intrinsic clearance measured upto 60 min by UPLC-MS/MS analysis; format: ADME, tissue-based; details: read-out: CLH
# Homo sapiens [17] = organism: Homo sapiens; assay: Inhibition of GAMK (unknown origin) at 1 uM in presence of ATP at Km concentration by Mobility shift assay relative to control
# [18] = Metabolic stability in Beagle dog liver microsome assessed as half life measured upto 60 min by UPLC-MS/MS analysis; format: ADME, Canis lupus familiaris; details: liver microsomes
# [19] = Metabolic stability in Beagle dog liver microsome assessed as compound remaining measured after 60 min by UPLC-MS/MS analysis; format: ADME, Canis lupus familiaris; details: liver microsomes, read-out: Stability
# MV4-11 [20] = assay: Antiproliferative activity against human MV4-11 cells assessed as reduction in cell viability measured for 3 days followed by replacement with fresh medium of compound and measured after 72 hrs by cell counting assay; format: functional, cell-based; details: MV4-11, 72 h
# [21] = Total clearance in Sprague-Dawley rat at 5 mg/kg, iv; format: ADME, organism-based; details: in vivo
# [22] = Volume of distribution at steady state in Sprague-Dawley rat at 5 mg/kg, iv; format: ADME, organism-based; details: in vivo
# MV4-11 [23] = assay: Reversible differentiation arrest in human MV4-11 cells at 0.1 to 10 uM measured after 7 days by flow cytometric analysis; format: functional, cell-based; details: dose 0.1-10 µM, time 7.0 day
# [24] = AUC (0 to t) in Sprague-Dawley rat at 15 mg/kg, po; format: ADME, organism-based; parameters: dose 15 mg/kg, route po; details: in vivo
# [25] = Volume of distribution at steady state in Sprague-Dawley rat at 15 mg/kg, po; format: ADME, organism-based; details: in vivo
# [26] = molecular target: Casein kinase I (Homo sapiens) (UniProt Q9HCP0+P78368+P48730+P49674+P48729); assay: Inhibition of CK1 (unknown origin) at 1 uM in presence of ATP at Km concentration by Mobility shift assay relative to control; format: protein assay
# [27] = AUC (0 to infinity) in Sprague-Dawley rat at 15 mg/kg, po; format: ADME, organism-based; parameters: time infinity, dose 15 mg/kg, route po; details: in vivo
# [28] = Cmax in Sprague-Dawley rat at 15 mg/kg, po; format: ADME, organism-based; parameters: dose 15 mg/kg, route po; details: in vivo
# Homo sapiens [29] = organism: Homo sapiens; assay: Inhibition of STE (unknown origin) at 1 uM in presence of ATP at Km concentration by Mobility shift assay relative to control
# [30] = Metabolic stability in CD-1 mouse liver microsome assessed as half life measured upto 60 min by UPLC-MS/MS analysis; format: ADME; details: liver microsomes
# MV4-11 [31] = assay: Antiproliferative activity against human MV4-11 cells harboring MLL-AF4 assessed as cell growth inhibition measured for 72 hrs by MTT assay; format: functional, cell-based; details: MV4-11, 72 h
# [32] = Tmax in Sprague-Dawley rat at 15 mg/kg, po; format: ADME, organism-based; details: in vivo
# [33] = MRT in Sprague-Dawley rat at 15 mg/kg, po; format: ADME, organism-based; details: in vivo
# [34] = Metabolic stability in human liver assessed as intrinsic clearance measured upto 60 min by UPLC-MS/MS analysis; format: ADME, tissue-based; details: read-out: CLH
# MV4-11 [35] = assay: Downregulation of MEISI gene in human MV4-11 cells incubated for 24 hrs by real-time PCR analysis; format: functional, cell-based; details: dose 0.1-10 µM, DDE = dose-dependent effect
# MV4-11 [36] = assay: Suppression of HOXA9 gene transcription in human MV4-11 cells xenografted in BALB/c nude mouse at 15 mg/kg, iv measured at 24 hrs by RT-PCR analysis; format: functional, organism-based
# [37] = Metabolic stability in Crab eating monkey liver microsome assessed as half life measured upto 60 min by UPLC-MS/MS analysis; format: ADME, Macaca fascicularis; details: cynomolgus monkey, liver microsomes
# [38] = Metabolic stability in Beagle dog liver assessed as intrinsic clearance measured upto 60 min by UPLC-MS/MS analysis; format: ADME, tissue-based, Canis lupus familiaris; details: read-out: CLH
# [39] = Cmax in Sprague-Dawley rat at 5 mg/kg, iv; format: ADME, organism-based; parameters: dose 5 mg/kg, route iv; details: in vivo
# MV4-11 [40] = assay: Suppression of MEIS1 gene transcription in human MV4-11 cells xenografted in BALB/c nude mouse at 15 mg/kg, iv measured after 24 hrs by RT-PCR analysis; format: functional, organism-based
# [41] = Half life in Sprague-Dawley rat at 5 mg/kg, iv; format: ADME, organism-based; details: in vivo
# MV4-11 [42] = assay: Antitumor activity against human MV4-11 cells xenografted in BALB/c nude mouse assessed as tumor growth inhibition at 6 mg/kg, po administered every second day for 16 days by calipers analysis; format: functional; details: MV4-11, 384 h, time 16 day, read-out: TGI
# [43] = Metabolic stability in Sprague-Dawley rat liver microsome assessed as compound remaining measured after 60 min by UPLC-MS/MS analysis; format: ADME; details: liver microsomes, read-out: Stability
# MV4-11 [44] = assay: Antitumor activity against human MV4-11 cells xenografted in BALB/c nude mouse assessed as tumor growth inhibition at 30 mg/kg, po administered every second day for 16 days by calipers analysis; format: functional; details: MV4-11, 384 h, time 16 day, read-out: TGI
# [45] = Metabolic stability in Crab eating monkey liver assessed as intrinsic clearance measured upto 60 min by UPLC-MS/MS analysis; format: ADME, tissue-based, Macaca fascicularis; details: cynomolgus monkey, read-out: CLH
# MV4-11 [46] = assay: Induction of cell cycle arrest in human MV4-11 cells assessed as accumulation at S phase at 0.1 to 10 uM incubated for 24 hrs by PI/RNase staining based flow cytometry analysis; format: functional; details: dose 0.1-10 µM
smiles,measurement,setting,value
CN(C)CCOc1ccc2ncnc(NC3CCN(CC4CN(c5ccc(S(=O)(=O)C6CC6)cc5)C4)CC3)c2n1,half-life,[1],165 min
same,inhibition,Homo sapiens [2],< 25%
same,solubility,[3],398 µg/mL
same,remaining at 1 h,[4],79%
same,CLint,[5],8.4 µL/min/mg
same,Activity,MV4-11 [6],Active
same,inhibition,Homo sapiens [7],< 25%
same,CL/F,[8],179 mL/min/kg
same,CLint,[9],7.2 µL/min/mg
same,CLint scaled,[10],17.5 mL/min/kg
same,Activity,MV4-11 [11],Dde
same,IC50,[12],7 nM
same,half-life,[13],192 min
same,MRT,[14],7.1 h
same,CLint,[15],9.7 µL/min/mg
same,CLint scaled,[16],28.2 mL/min/kg
same,inhibition,Homo sapiens [17],< 25%
same,half-life,[18],102 min
same,remaining at 1 h,[19],65%
same,IC50,MV4-11 [20],300 nM
same,CL,[21],2056 mL/h/kg
same,Vdss,[22],49.3 L/kg
same,Activity,MV4-11 [23],Active
same,AUC(0-t),[24],864 ng·h/mL
same,Vdss,[25],23 L/kg
same,inhibition,[26],< 25%
same,AUC(0-inf),[27],1480 ng·h/mL
same,Cmax,[28],56.7 ng/mL
same,inhibition,Homo sapiens [29],< 25%
same,half-life,[30],203 min
same,IC50,MV4-11 [31],300 nM
same,Tmax,[32],7.3 h
same,MRT,[33],12 h
same,CLint scaled,[34],8 mL/min/kg
same,Activity,MV4-11 [35],Dde
same,Activity,MV4-11 [36],Active
same,half-life,[37],65 min
same,CLint scaled,[38],20 mL/min/kg
same,Cmax,[39],1190 ng/mL
same,Activity,MV4-11 [40],Active
same,half-life,[41],1050 min
same,inhibition in vivo at 6 mg/kg,MV4-11 [42],64%
same,remaining at 1 h,[43],77%
same,inhibition in vivo at 30 mg/kg,MV4-11 [44],97%
same,CLint scaled,[45],31.7 mL/min/kg
same,Activity,MV4-11 [46],Active
